Measurements: patent US8383608B2, “Imidazolidine compounds as androgen receptor modulators” (Dart Therapeutics LLC, priority 2008, dated 2013)

Biological target: T1, human androgen receptor (hAR) (Homo sapiens, UniProt P10275)
T1 construct: expressed in transfected cells
T1 sequence (P10275 1-920): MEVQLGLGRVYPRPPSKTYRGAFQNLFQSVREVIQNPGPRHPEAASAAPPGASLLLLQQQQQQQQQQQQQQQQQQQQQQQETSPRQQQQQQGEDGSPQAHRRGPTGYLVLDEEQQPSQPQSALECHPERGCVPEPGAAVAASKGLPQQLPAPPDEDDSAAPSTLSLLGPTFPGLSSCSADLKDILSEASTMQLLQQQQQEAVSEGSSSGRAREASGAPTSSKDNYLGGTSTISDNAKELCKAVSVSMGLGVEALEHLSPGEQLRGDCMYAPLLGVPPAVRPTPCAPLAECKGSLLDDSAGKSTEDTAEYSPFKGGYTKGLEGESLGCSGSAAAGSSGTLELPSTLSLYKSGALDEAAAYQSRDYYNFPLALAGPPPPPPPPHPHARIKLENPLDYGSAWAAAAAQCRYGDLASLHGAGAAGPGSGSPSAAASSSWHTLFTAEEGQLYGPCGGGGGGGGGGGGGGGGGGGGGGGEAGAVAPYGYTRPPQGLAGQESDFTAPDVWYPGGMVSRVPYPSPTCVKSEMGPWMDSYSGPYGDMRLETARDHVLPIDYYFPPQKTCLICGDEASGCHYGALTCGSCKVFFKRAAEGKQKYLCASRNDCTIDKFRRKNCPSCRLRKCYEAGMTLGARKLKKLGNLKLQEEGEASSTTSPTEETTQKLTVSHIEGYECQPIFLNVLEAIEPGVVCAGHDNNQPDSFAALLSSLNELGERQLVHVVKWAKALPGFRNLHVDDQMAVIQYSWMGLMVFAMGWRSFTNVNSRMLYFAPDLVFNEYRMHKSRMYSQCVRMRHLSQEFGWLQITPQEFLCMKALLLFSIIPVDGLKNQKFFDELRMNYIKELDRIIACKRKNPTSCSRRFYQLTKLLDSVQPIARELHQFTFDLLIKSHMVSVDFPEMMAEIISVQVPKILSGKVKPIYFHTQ
Experiment: Functional response (transactivation) test in HALP2 cells (HeLa stably expressing hAR and ARE-luciferase reporter)
Type: cell-based
Settings: HALP2 cells; for Emax: HeLa, maximal activation by the compound compared with DHT alone (100%), read-out: % effect relative to DHT (100%); for EC50: agonism: concentration inducing 50% of the maximum agonistic effect of the tested compound, 24 hours, read-out: EC50

CN1C(=O)N(c2ccc(C#N)c(C(F)(F)F)c2)C(=O)[C@@]1(CO)c1ccccc1 [Example 10, (S)-4-[2,5-Dioxo-4-(hydroxymethyl)-3-methyl-4-phenylimidazolidin-1-yl]-2-trifluoromethylbenzonitrile]
Emax: 21 to 40% | EC50: 11 to 100 nM

CN1C(=O)N(c2ccc(C#N)c(C(F)(F)F)c2)C(=O)C1(CO)c1ccc(Cl)cc1 (stereo not drawn) [Example 7, 4-[4-(4-Chlorophenyl)-2,5-dioxo-4-hydroxymethyl-3-methyl-imidazolidin-1-yl)-2-trifluoromethylbenzonitrile]
Emax: 21 to 40% | EC50: 101 to 500 nM

CCN1C(=O)N(c2ccc(C#N)c(C(F)(F)F)c2)C(=O)C1(CO)c1ccccc1 (stereo not drawn) [Example 12, 4-[2,5-Dioxo-3-ethyl-4-(hydroxymethyl)-4-phenylimidazolidin-1-yl]-2-trifluoromethylbenzonitrile]
Emax: 21 to 40% | EC50: 0.01 to 10 nM
